From patent US11167007B2, “FOXM1 modulators and uses thereof” (City of Hope, priority 2016, dated 2021)

Legend:
Design in all cases: Full length AR with cyan fluorescent protein (CFP) or yellow fluorescent protein (YFP) fused to either end (CARY); expressed in transfected cells
AR [1] = molecular target: T1, AR (Homo sapiens, UniProt P10275); assay: FRET-based AR conformation change reporter (CARY) in HEK293 kidney cells; format: cell-based
T1 sequence (P10275 1-920): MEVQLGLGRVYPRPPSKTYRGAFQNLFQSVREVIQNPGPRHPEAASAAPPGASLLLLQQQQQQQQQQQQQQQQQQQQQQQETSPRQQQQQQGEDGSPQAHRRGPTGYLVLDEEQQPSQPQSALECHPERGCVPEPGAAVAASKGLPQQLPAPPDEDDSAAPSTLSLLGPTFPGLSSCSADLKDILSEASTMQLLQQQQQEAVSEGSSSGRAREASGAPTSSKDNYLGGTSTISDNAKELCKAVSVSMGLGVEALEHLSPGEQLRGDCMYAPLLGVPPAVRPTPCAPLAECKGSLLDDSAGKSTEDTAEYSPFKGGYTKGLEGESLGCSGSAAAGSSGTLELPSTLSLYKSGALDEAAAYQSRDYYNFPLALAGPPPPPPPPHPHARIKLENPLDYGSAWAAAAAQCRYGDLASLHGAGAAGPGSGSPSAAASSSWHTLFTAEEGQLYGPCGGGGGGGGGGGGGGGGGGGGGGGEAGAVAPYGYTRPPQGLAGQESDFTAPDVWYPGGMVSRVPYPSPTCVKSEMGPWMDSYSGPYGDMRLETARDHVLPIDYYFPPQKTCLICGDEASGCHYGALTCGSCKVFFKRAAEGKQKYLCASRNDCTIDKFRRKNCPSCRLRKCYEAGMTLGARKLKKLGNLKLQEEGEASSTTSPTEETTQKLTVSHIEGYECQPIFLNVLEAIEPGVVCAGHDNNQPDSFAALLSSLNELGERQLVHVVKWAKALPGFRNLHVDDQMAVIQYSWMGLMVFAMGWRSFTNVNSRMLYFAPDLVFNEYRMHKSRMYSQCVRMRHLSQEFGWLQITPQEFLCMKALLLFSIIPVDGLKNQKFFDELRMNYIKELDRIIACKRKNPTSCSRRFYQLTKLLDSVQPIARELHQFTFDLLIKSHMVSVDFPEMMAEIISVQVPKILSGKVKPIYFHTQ
Method: (§1) Creation of stable C-AR-Y reporter cell lines. Cell lines listed above were either transfected with a plasmid or a virus containing the CFP-AR-YFP construct preceding an IRES and hygromycin resistance gene and clonal stable cell lines selected. Qualification criteria for the transfected cell lines were described by Jones et al, ACS Chem Biol, 3(7):412-8 (2008).
(§2) Screen for AR-modulators. Screening was performed essentially as described by Jones et al, ACS Chem Biol, 3(7):412-8 (2008). Briefly, C-AR-Y reporter GTI-7 were transferred to 96 well plates and treated with library compounds for 24 hours. […] The compounds to be tested were from the NCI/DTP Open Chemical Repository's Approved Oncology Drugs Set II, Diversity Set II and Mechanistic Set. […] After 24 hours, medium was aspirated and FRET was measured as previously described using a monochromator-based fluorescence plate reader (M1000, Tecan, Inc.). Jones et al, ACS Chem Biol, 3(7):412-8 (2008). […]
(§3) In order to identify potential cell-type selective AR modulators, the FRET-based assay of AR conformation change was utilized. […] This produces an accurate and quantifiable read-out of AR activity. […] Candidate hits were then further evaluated by dose response. […] In addition to FRET, AR transcriptional activity was also assessed in several cell lines by transfecting cells with a luciferase reporter driven by the human PSA promoter. […]

AR [2] = molecular target: T1, AR; assay: FRET-based AR conformation change reporter (CARY) in LNCaP C4 prostate cells; format: cell-based; details: LNCaP C4 prostate cancer cells
Method: as §1, §2, §3

AR [3] = molecular target: T1, AR; assay: FRET-based AR conformation change reporter (CARY) in 3T3L1 adipose cells; format: cell-based, murine; details: 3T3L1 adipose-derived cells
Method: as §1, §2, §3

SMILES: C=C(NC(=O)C(=C)NC(=O)c1csc(C2=N[C@@H]3c4csc(n4)[C@H]4NC(=O)c5csc(n5)[C@H]([C@](C)(O)[C@@H](C)O)NC(=O)[C@H]5CSC(=N5)/C(=C/C)NC(=O)[C@H]([C@@H](C)O)NC(=O)c5csc(n5)[C@]3(CC2)NC(=O)[C@H](C)NC(=O)C(=C)NC(=O)C(=C)NC(=O)[C@H](C(C)C)N[C@@H]2C=Cc3c([C@H](C)O)cc(nc3[C@H]2O)C(=O)O[C@@H]4C)n1)C(N)=O [NSC285116, siomycin A]
- AR inhibitor activity in words (AR [1]): some activity
- AR inhibitor activity in words (AR [2]; listed as Siomycin A): little to no activity
- AR inhibitor activity in words (AR [2]; listed as siomycin): not as sensitive
- AR inhibitor activity in words (AR [3]): little to no activity
